# Reference: ChEMBL document CHEMBL1201862, “PubChem BioAssay data set” (2004)
#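 The compound was tested at five concentrations on cells cultured in 96-well plates, with a 48-hour exposure period. GI50 is the concentration that inhibits growth by half.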 The source made the active and inactive calls. No stated cut-off is given here; in the data, active = GI50 up to about 1.1 µM and inactive = higher.
# What was measured:
# Assay in all cases: inhibition of tumour cell growth, NCI panel, 48 h
# LOX IMVI = test system: LOX IMVI
# OVCAR-4 = test system: OVCAR-4
# SK-OV-3 = test system: SK-OV-3
# UO-31 = test system: UO-31
# SF-268 = test system: SF-268
# HT-29 = test system: HT-29
# COLO 205 = test system: COLO 205
# SK-MEL-2 = test system: SK-MEL-2
# Malme-3M = test system: Malme-3M
# T47D = test system: T47D
# UACC-62 = test system: UACC-62
# HOP-62 = test system: HOP-62
# MDA-MB-231 = test system: MDA-MB-231
# NCI-H23 = test system: NCI-H23
# MOLT-4 = test system: MOLT-4
# SR = test system: SR
# SF-539 = test system: SF-539
# HCC 2998 = test system: HCC 2998
Compound,GI50 (LOX IMVI),GI50 (OVCAR-4),GI50 (SK-OV-3),GI50 (UO-31),GI50 (SF-268),GI50 (HT-29),GI50 (COLO 205),GI50 (SK-MEL-2),GI50 (Malme-3M),GI50 (T47D),GI50 (UACC-62),GI50 (HOP-62),GI50 (MDA-MB-231),GI50 (NCI-H23),GI50 (MOLT-4),GI50 (SR),GI50 (SF-539),GI50 (HCC 2998)
Cc1cc(C)nc(SCC(=O)OC2CC(C)CCC2C(C)C)n1 (stereo not given),20 µM (inactive),20.9 µM (inactive),23.9 µM (inactive),18.7 µM (inactive),37 µM (inactive),16.4 µM (inactive),16.7 µM (inactive),21.8 µM (inactive),21.6 µM (inactive),14.8 µM (inactive),14.6 µM (inactive),11.6 µM (inactive),17.9 µM (inactive),24.8 µM (inactive),16.7 µM (inactive),–,–,–
Cc1c(N2CCN(C)CC2)nc2ccc(Cl)cc2c1-c1ccccc1,14.7 µM (inactive),17.7 µM (inactive),47.4 µM (inactive),16.5 µM (inactive),29.4 µM (inactive),14.3 µM (inactive),16.1 µM (inactive),17.3 µM (inactive),16.9 µM (inactive),–,15.7 µM (inactive),18.2 µM (inactive),–,23.1 µM (inactive),> 10 µM (inactive),17.9 µM (inactive),17.6 µM (inactive),> 10 µM (inactive)
CC(=O)NC(CCCNC(=O)OCc1ccccc1)C(=O)O (stereo not given),> 100 µM (inactive),36.1 µM (inactive),> 100 µM (inactive),> 100 µM (inactive),> 100 µM (inactive),> 100 µM (inactive),> 100 µM (inactive),> 100 µM (inactive),> 100 µM (inactive),–,> 100 µM (inactive),> 100 µM (inactive),–,> 100 µM (inactive),> 100 µM (inactive),–,> 100 µM (inactive),> 100 µM (inactive)
Cc1ccc2ccccc2c1NC1=NCCO1,–,94.6 µM (inactive),> 100 µM (inactive),27.7 µM (inactive),> 100 µM (inactive),83 µM (inactive),> 100 µM (inactive),–,> 100 µM (inactive),41.7 µM (inactive),> 100 µM (inactive),> 100 µM (inactive),> 100 µM (inactive),90.4 µM (inactive),34 µM (inactive),34.2 µM (inactive),35.6 µM (inactive),82.8 µM (inactive)
Cc1cc(S(N)(=O)=O)c(S/C(=N\Nc2ccc([N+](=O)[O-])cc2)c2ccc(Cl)cc2)cc1Cl,2.1 µM (inactive),1.71 µM (inactive),1.96 µM (inactive),4.42 µM (inactive),2.3 µM (inactive),1.87 µM (inactive),7.87 µM (inactive),2.76 µM (inactive),1.59 µM (inactive),3.07 µM (inactive),4.57 µM (inactive),3.18 µM (inactive),2.94 µM (inactive),2.25 µM (inactive),4.1 µM (inactive),2.94 µM (inactive),1.96 µM (inactive),–
Cc1ccc(O)c(/N=N\c2c(O)cc(S(=O)(=O)O)c3ccccc23)c1,–,66.1 µM (inactive),51.4 µM (inactive),17.3 µM (inactive),> 100 µM (inactive),61.5 µM (inactive),67.6 µM (inactive),29.7 µM (inactive),25.2 µM (inactive),–,25.7 µM (inactive),57.4 µM (inactive),25.4 µM (inactive),–,26.5 µM (inactive),17.8 µM (inactive),62.5 µM (inactive),> 100 µM (inactive)
COC(=O)/C=C/N1CC1,–,4.82 µM (inactive),> 10 µM (inactive),–,> 10 µM (inactive),3.28 µM (inactive),2.19 µM (inactive),> 10 µM (inactive),> 10 µM (inactive),> 10 µM (inactive),> 10 µM (inactive),> 10 µM (inactive),> 10 µM (inactive),> 10 µM (inactive),> 10 µM (inactive),> 10 µM (inactive),> 10 µM (inactive),3.62 µM (inactive)
O=C(/C=C/c1c(O)ccc2ccccc12)c1ccc2ccccc2c1,> 100 µM (inactive),> 100 µM (inactive),> 100 µM (inactive),> 100 µM (inactive),> 100 µM (inactive),> 100 µM (inactive),> 100 µM (inactive),> 100 µM (inactive),> 100 µM (inactive),–,59.8 µM (inactive),> 100 µM (inactive),–,> 100 µM (inactive),> 100 µM (inactive),–,> 100 µM (inactive),> 100 µM (inactive)
O=C(NCCN1CCOCC1)c1ccc2cc(C(=O)N3CC(CCl)c4ccc([N+](=O)[O-])cc43)[nH]c2c1 (stereo not given),2.63 µM (inactive),8.77 µM (inactive),16.1 µM (inactive),43.4 µM (inactive),9.84 µM (inactive),5.14 µM (inactive),25 µM (inactive),16 µM (inactive),–,26.2 µM (inactive),11.9 µM (inactive),17.1 µM (inactive),15.5 µM (inactive),43.6 µM (inactive),6.52 µM (inactive),–,60.4 µM (inactive),15 µM (inactive)
COc1c(NC(C)=O)cc(C)cc1NC(C)=O,> 100 µM (inactive),> 100 µM (inactive),> 100 µM (inactive),–,> 100 µM (inactive),–,> 100 µM (inactive),> 100 µM (inactive),–,–,> 100 µM (inactive),> 100 µM (inactive),–,–,> 100 µM (inactive),> 100 µM (inactive),> 100 µM (inactive),> 100 µM (inactive)
S=C1c2ccccc2N=C(NC2CCCC2)C2CSCN12 (stereo not given),75.2 µM (inactive),> 100 µM (inactive),> 100 µM (inactive),65.2 µM (inactive),49.2 µM (inactive),48.5 µM (inactive),> 100 µM (inactive),> 100 µM (inactive),> 100 µM (inactive),48.3 µM (inactive),43.5 µM (inactive),> 100 µM (inactive),> 100 µM (inactive),–,26.3 µM (inactive),39.6 µM (inactive),–,65.6 µM (inactive)
Oc1c(Cl)c(Cl)c(O)c(CCNc2nccs2)c1Cl,–,38.1 µM (inactive),16.3 µM (inactive),16.4 µM (inactive),9.06 µM (inactive),17.9 µM (inactive),11.3 µM (inactive),22.3 µM (inactive),27.4 µM (inactive),5.48 µM (inactive),17.1 µM (inactive),19.1 µM (inactive),0.119 µM (active),18.4 µM (inactive),48.8 µM (inactive),4.81 µM (inactive),1.68 µM (inactive),16.1 µM (inactive)
O=c1[nH]c(C2CCCCC2)nc2cc(Cl)ccc12,–,67.3 µM (inactive),> 100 µM (inactive),58.2 µM (inactive),> 100 µM (inactive),> 100 µM (inactive),> 100 µM (inactive),> 100 µM (inactive),> 100 µM (inactive),–,> 100 µM (inactive),–,–,> 100 µM (inactive),> 100 µM (inactive),> 100 µM (inactive),> 100 µM (inactive),> 100 µM (inactive)
